Legend:
Format in all cases: cell-based
[1] = tested on: NCI-H2052 mesothelioma cell line; assay: Mesothelioma cell line proliferation assay, NCI-H2052; conditions: NCI-H2052, 6 days with compound, cell viability by ATPlite
Protocol: (§1) Mesothelioma cell lines, NCI-H226 and NCI-H2052 (all sourced from the ATCC cell culture collection) are plated in 96-well plates (Corning® 96 Well White Polystyrene Microplate clear flat bottom, white polystyrene (TC-Treated)), at 1500 cells/well in full medium (RPMI 1640 ATCC modification with L-glutamine, HEPES, Phenol Red, Sodium Pyruvate, High glucose, Low sodium bicarbonate and 10% fetal bovine serum). Cells are incubated overnight at 37° C. in an incubator with 5% CO2. Then compounds, dissolved in DMSO, are added in dose-response. Cells are incubated with compound dilutions for another 6 days at 37° C. in an incubator with 5% CO2. Cell viability is quantitated using the ATPlite kit (Perkin-Elmer) and the luminescence is read-out using an Envision instrument (Perkin-Elmer). The amount of relative light units produced using the ATPlite kit is used to calculated percent of inhibition.
(§2) The activities of example compounds tested are depicted in the table below. The activity ranges A, B and C refer to EC50 values in the mesothelioma cell line proliferation assay as described as follows: “A”: EC50 <1 μM; “B” : 1 μM EC50 ≤10 μM and “C” : EC50 >10 μM. NT: not tested.

[2] = tested on: NCI-H226 mesothelioma cell line; assay: Mesothelioma cell line proliferation assay, NCI-H226; conditions: NCI-H226, 6 days with compound, cell viability by ATPlite
Protocol: as §1, §2

[3] = tested on: YAP/TAZ-TEAD transcription; assay: Reporter gene assay for measuring the inhibition of YAP/TAZ-TEAD transcription (TEAD-responsive element luciferase reporter in Hek293T cells); conditions: Hek293T cells transiently transfected with TEAD-responsive element luciferase reporter, 24 hours incubation
How it was run: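 Hek293T cells transiently transfected with TEAD-responsive luciferase reporter, exposed to compound for 24 h at 37° C/5% CO2, then read by luminescence. Percent inhibition normalized to vehicle (0%) and positive control inhibitor (100%); EC50 reported as activity ranges.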

| EC50 ([1]; Homo sapiens, NCI-H2052, 144 h) | EC50 ([2]; Homo sapiens, NCI-H226, 144 h) | EC50 ([3]; Homo sapiens, HEK-293T, 24 h) | EC50 [3] | EC50 [1] | EC50 [2] | Compound |
| --- | --- | --- | --- | --- | --- | --- |
| > 10000 nM | 1000 to 10000 nM | – | – | – | – | C=CC(=O)NCC1CN(c2cccc(C(F)(F)F)c2)c2ccnn2C1 (single isomer, unassigned) [Cpd. No. 003-En1, (R)- or (S)-N-((4-(3-(trifluoromethyl)phenyl)-4,5,6,7-tetrahydropyrazolo[1,5-a]pyrimidin-6-yl)methyl)acrylamide] |
| < 1000 nM | < 1000 nM | < 1000 nM | – | – | – | C=CC(=O)NCC1CN(c2ccc(C(F)(F)F)cn2)c2ccnn2C1 (single isomer, unassigned) [Cpd. No. 008-En1, (R)- or (S)-N-((4-(5-(trifluoromethyl)pyridin-2-yl)-4,5,6,7-tetrahydropyrazolo[1,5-a]pyrimidin-6-yl)methyl)acrylamide] |
| – | – | – | < 1000 nM | < 1000 nM | < 1000 nM | C=CC(=O)NCC1CN(c2ccc(C(F)(F)F)cn2)c2ccnn2C1 (single isomer, unassigned) [Cpd. No. 008-En2, (R)- or (S)-N-((4-(5-(trifluoromethyl)pyridin-2-yl)-4,5,6,7-tetrahydropyrazolo[1,5-a]pyrimidin-6-yl)methyl)acrylamide] |
| – | – | – | < 1000 nM | < 1000 nM | < 1000 nM | C=CC(=O)NCC1CN(c2ccc(OC(F)(F)F)cc2)c2ccnn2C1 (single isomer, unassigned) [Cpd. No. 011-En1, (R)- or (S)-N-((4-(4-(trifluoromethoxy)phenyl)-4,5,6,7-tetrahydropyrazolo[1,5-a]pyrimidin-6-yl)methyl)acrylamide] |
| – | – | – | < 1000 nM | > 10000 nM | < 1000 nM | C=CC(=O)NCC1CN(c2ccc(OC(F)(F)F)cc2)c2ccnn2C1 (single isomer, unassigned) [Cpd. No. 011-En2, (R)- or (S)-N-((4-(4-(trifluoromethoxy)phenyl)-4,5,6,7-tetrahydropyrazolo[1,5-a]pyrimidin-6-yl)methyl)acrylamide] |
| – | – | – | < 1000 nM | < 1000 nM | < 1000 nM | C=CC(=O)NCC1CN(c2ccc(OC(F)F)cc2)c2ccnn2C1 (single isomer, unassigned) [Cpd. No. 012-En1, (R)- or (S)-N-((4-(4-(difluoromethoxy)phenyl)-4,5,6,7-tetrahydropyrazolo[1,5-a]pyrimidin-6-yl)methyl)acrylamide] |
| – | – | – | < 1000 nM | > 10000 nM | < 1000 nM | C=CC(=O)NCC1CN(c2ccc(OC(F)F)cc2)c2ccnn2C1 (single isomer, unassigned) [Cpd. No. 012-En2, (R)- or (S)-N-((4-(4-(difluoromethoxy)phenyl)-4,5,6,7-tetrahydropyrazolo[1,5-a]pyrimidin-6-yl)methyl)acrylamide] |
| < 1000 nM | < 1000 nM | < 1000 nM | – | – | – | C=CC(=O)NCC1CN(c2ccc(C(C)(C)C)cc2)c2ccnn2C1 (single isomer, unassigned) [Cpd. No. 014-En1, (R)- or (S)-N-((4-(4-(tert-butyl)phenyl)-4,5,6,7-tetrahydropyrazolo[1,5-a]pyrimidin-6-yl)methyl)acrylamide] |
| – | – | – | < 1000 nM | < 1000 nM | < 1000 nM | C=CC(=O)NCC1CN(c2ccc(C(F)(F)F)cc2F)c2ccnn2C1 (single isomer, unassigned) [Cpd. No. 016-En1, (R)- or (S)-N-((4-(2-fluoro-4-(trifluoromethyl)phenyl)-4,5,6,7-tetrahydropyrazolo[1,5-a]pyrimidin-6-yl)methyl)acrylamide] |
| – | – | – | < 1000 nM | > 10000 nM | < 1000 nM | C=CC(=O)NCC1CN(c2ccc(C(F)(F)F)cc2F)c2ccnn2C1 (single isomer, unassigned) [Cpd. No. 016-En2, (R)- or (S)-N-((4-(2-fluoro-4-(trifluoromethyl)phenyl)-4,5,6,7-tetrahydropyrazolo[1,5-a]pyrimidin-6-yl)methyl)acrylamide] |
| < 1000 nM | < 1000 nM | – | – | – | – | C=CC(=O)NCC1CN(c2ccc(OC(F)(F)F)c(F)c2)c2ccnn2C1 (single isomer, unassigned) [Cpd. No. 018-En1, (R)- or (S)-N-((4-(3-fluoro-4-(trifluoromethoxy)phenyl)-4,5,6,7-tetrahydropyrazolo[1,5-a]pyrimidin-6-yl)methyl)acrylamide] |
| – | – | – | – | < 1000 nM | < 1000 nM | C=CC(=O)NCC1CN(c2ccc(OC(F)(F)F)c(F)c2)c2ccnn2C1 (single isomer, unassigned) [Cpd. No. 018-En2, (R)- or (S)-N-((4-(3-fluoro-4-(trifluoromethoxy)phenyl)-4,5,6,7-tetrahydropyrazolo[1,5-a]pyrimidin-6-yl)methyl)acrylamide] |
| – | < 1000 nM | < 1000 nM | – | < 1000 nM | – | C=CC(=O)NCC1CN(c2ccc(OC(F)(F)F)cc2F)c2ccnn2C1 (single isomer, unassigned) [Cpd. No. 019-En1, (R)- or (S)-N-((4-(2-fluoro-4-(trifluoromethoxy)phenyl)-4,5,6,7-tetrahydropyrazolo[1,5-a]pyrimidin-6-yl)methyl)acrylamide] |
| – | – | – | < 1000 nM | > 10000 nM | < 1000 nM | C=CC(=O)NCC1CN(c2ccc(OC(F)(F)F)cc2F)c2ccnn2C1 (single isomer, unassigned) [Cpd. No. 019-En2, (R)- or (S)-N-((4-(2-fluoro-4-(trifluoromethoxy)phenyl)-4,5,6,7-tetrahydropyrazolo[1,5-a]pyrimidin-6-yl)methyl)acrylamide] |
| < 1000 nM | – | – | < 1000 nM | – | < 1000 nM | C=CC(=O)NCC1CN(c2ccc(SC(F)(F)F)cc2)c2ccnn2C1 (single isomer, unassigned) [Cpd. No. 020-En1, (R)- or (S)-N-((4-(4-((trifluoromethyl)thio)phenyl)-4,5,6,7-tetrahydropyrazolo[1,5-a]pyrimidin-6-yl)methyl)acrylamide] |
| – | – | – | < 1000 nM | 1000 to 10000 nM | > 10000 nM | C=CC(=O)NCC1CN(c2ccc(SC(F)(F)F)cc2)c2ccnn2C1 (single isomer, unassigned) [Cpd. No. 020-En2, (R)- or (S)-N-((4-(4-((trifluoromethyl)thio)phenyl)-4,5,6,7-tetrahydropyrazolo[1,5-a]pyrimidin-6-yl)methyl)acrylamide] |
| < 1000 nM | < 1000 nM | – | – | – | – | C=CC(=O)NCC1CN(c2ccc(Br)cc2)c2ccnn2C1 (single isomer, unassigned) [Cpd. No. 021-En2, (R)- or (S)-N-((4-(4-bromophenyl)-4,5,6,7-tetrahydropyrazolo[1,5-a]pyrimidin-6-yl)methyl)acrylamide] |
| – | < 1000 nM | < 1000 nM | – | < 1000 nM | – | C=CC(=O)NCC1CN(c2ccc(C3CC3)cc2)c2ccnn2C1 (single isomer, unassigned) [Cpd. No. 022-En1, (R)- or (S)-N-((4-(4-cyclopropylphenyl)-4,5,6,7-tetrahydropyrazolo[1,5-a]pyrimidin-6-yl)methyl)acrylamide] |
| 1000 to 10000 nM | < 1000 nM | – | – | – | – | C=CC(=O)NCC1CN(c2ccc(OC(F)(F)F)cc2)c2cc(C(F)(F)F)nn2C1 (single isomer, unassigned) [Cpd. No. 035-En2, (R)- or (S)-N-((4-(4-(trifluoromethoxy)phenyl)-2-(trifluoromethyl)-4,5,6,7-tetrahydropyrazolo[1,5-a]pyrimidin-6-yl)methyl)acrylamide] |
| > 10000 nM | < 1000 nM | – | – | – | – | C=CC(=O)NCC1CN(CC2CCCCC2)c2ccnn2C1 (single isomer, unassigned) [Cpd. No. 055-En2, (R)- or (S)-N-((4-(cyclohexylmethyl)-4,5,6,7-tetrahydropyrazolo[1,5-a]pyrimidin-6-yl)-methyl)acrylamide] |
| < 1000 nM | < 1000 nM | – | – | – | – | C=CC(=O)NC1CN(c2ccc(C(F)(F)F)c(F)c2)c2ccnn2C1 (single isomer, unassigned) [Cpd. No. 064-En1, (R)- or (S)-N-(4-(3-fluoro-4-(trifluoromethyl)phenyl)-4,5,6,7-tetrahydropyrazolo[1,5-a]pyrimidin-6-yl)acrylamide] |

| Compound | EC50 ([1]; Homo sapiens, NCI-H2052, 144 h) | EC50 ([2]; Homo sapiens, NCI-H226, 144 h) | EC50 ([3]; Homo sapiens, HEK-293T, 24 h) | EC50 [3] | EC50 [1] | EC50 [2] |
| --- | --- | --- | --- | --- | --- | --- |
| C=CC(=O)NCC1CN(c2ccc(C(C)C)cc2)c2ccnn2C1 (single isomer, unassigned) [Cpd. No. 013-En1, (R)- or (S)-N-((4-(4-isopropylphenyl)-4,5,6,7-tetrahydropyrazolo[1,5-a]pyrimidin-6-yl)methyl)acrylamide] | – | – | – | < 1000 nM | < 1000 nM | < 1000 nM |
| C=CC(=O)NCC1CN(c2ccc(C(C)C)cc2)c2ccnn2C1 (single isomer, unassigned) [Cpd. No. 013-En2, (R)- or (S)-N-((4-(4-ispropylphenyl)-4,5,6,7-tetrahydropyrazolo[1,5-a]pyrimidin-6-yl)methyl)acrylamide] | – | – | – | < 1000 nM | 1000 to 10000 nM | < 1000 nM |
